Test results as given in article PMC7408547, “Bivalent Inhibitor with Selectivity for Trimeric MMP-9 Amplifies Neutrophil Chemotaxis and Enables Functional Studies on MMP-9 Proteoforms” (Cells, 2020).
pIC50: −log10 of the molar value. Where “and” joins values, the source holds several entries; their conditions need not be identical. Identical values can stand only once.

Experiments:
Assay type in all cases: biochemical
MMP-2 = molecular target: T1, MMP-2 (Homo sapiens, UniProt P08253); assay: MMP-2 OmniMMP peptide assay; settings: OmniMMP substrate peptide
T1 construct: purchased R & D systems; host or cells: CHO cells
T1 sequence (P08253 110-660): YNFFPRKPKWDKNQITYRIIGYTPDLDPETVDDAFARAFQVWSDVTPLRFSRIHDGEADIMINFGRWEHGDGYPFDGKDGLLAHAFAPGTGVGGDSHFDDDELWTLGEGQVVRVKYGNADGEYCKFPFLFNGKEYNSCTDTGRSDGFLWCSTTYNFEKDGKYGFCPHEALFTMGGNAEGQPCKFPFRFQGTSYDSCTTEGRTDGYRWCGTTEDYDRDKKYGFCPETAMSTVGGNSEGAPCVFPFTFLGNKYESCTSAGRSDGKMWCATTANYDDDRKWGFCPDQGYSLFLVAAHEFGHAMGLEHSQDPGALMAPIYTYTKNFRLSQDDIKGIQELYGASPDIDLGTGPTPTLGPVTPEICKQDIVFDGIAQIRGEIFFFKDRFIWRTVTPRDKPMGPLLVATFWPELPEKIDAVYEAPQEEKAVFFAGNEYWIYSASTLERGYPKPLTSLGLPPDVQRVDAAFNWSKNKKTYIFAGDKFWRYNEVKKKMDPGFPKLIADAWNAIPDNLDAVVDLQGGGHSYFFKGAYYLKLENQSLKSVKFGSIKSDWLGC
Procedure: (§1) Compounds 5 and 7 were synthesized as previously reported. Full-length human proMMP-9 was produced by recombinant expression in Sf9 insect cells and purified by gelatin-Sepharose chromatography as previously described. Stable full-length proMMP-9 monomers and trimers were separated by glycerol gradient ultracentrifugation as previously described. ProMMP-9 mixture and the separated monomers and trimers were activated by incubation with the catalytic domain of MMP-3 (cat. No. 444217, Merck Millipore, Darmstadt, Germany) as previously described. Activation of proMMP-9 was confirmed by a band shift of ±10 kDa, corresponding to the removal of the auto-inhibitory propeptide domain and by detection of gelatinolytic activity with a previously described gelatin degradation assay. […] ADAM17/TACE (Sf 21 (baculovirus)-derived, R & D systems, Minneapolis, MO, USA) was diluted and evaluated in 25 mM Tris, 2.5 μM ZnCl2, 0.005% Brij-35, pH 9.0. All stocks of the compounds were evaluated for the presence of endotoxin using the EndoZyme II assay (Hyglos bioMérieux, Bernried am Starnberger See, Germany). […]
To determine the inhibition of gelatinolytic activity, we used a previously optimized gelatin degradation assay. […] Proteolytic activity was determined by linear regression of the fluorescence curve and the percentage inhibition was calculated through comparison with the positive control (no inhibitors). […]

TACE/ADAM17 = molecular target: T2, TACE/ADAM17 (Homo sapiens, UniProt P78536); assay: TACE/ADAM17 fluorogenic peptide assay; settings: Mca-PLAQAV-Dpa-RSSSR-NH2 fluorogenic peptide, tested up to an inhibitor concentration of 50 µM
T2 construct: purchased R & D systems; host or cells: Sf 21 (baculovirus)
Procedure: as §1, with “assay. MMP-9 monomers and trimers purified from human neutrophils were purchased (Cat. No. 444,231 and 444232, Sigma-Aldrich, St. Louis, MO, USA). Examples of sample purities and activations can be found in Supplementary Figure S1. Recombinant human proMMP-2 (CHO cell-derived), proMMP-3 (NS0 cell-derived), proMMP-7 (NS0 cell-derived) and proMMP-8 (NS0 cell-derived) were purchased from R & D systems (Minneapolis, MN, USA), dissolved in assay buffer (150 mM NaCl, 5 mM CaCl2, 0.01% Tween-20, 50 mM Tris, pH 7.4) to a concentration of 100 µg/mL and activated by incubation with 1 mM p-aminophenylmercuric acetate for, respectively, 1h, 6h, 2h and 1h. Activation of MMPs was confirmed by a band shift of approximately 10 kDa, corresponding to the removal of the propeptide domain. MMP-14/MT1-MMP (NS0 cell-derived) was also purchased from R & D systems (Minneapolis, MN, USA) and activated by incubation with recombinant human furin (cat. No. 1503-SE-010, R & D systems, Minneapolis, MO, USA) in activation buffer (50 mM Tris, 1 mM CaCl2, 0.5% Brij-35, pH 9) for 1.5 h and activity was tested in assay buffer (50 mM Tris, 3 mM CaCl2, 1 µM ZnCl2, pH 8.5).” for “assay.”
To determine the inhibition of gelatinolytic activity, we used a previously optimized gelatin degradation assay. […] Next, dye-quenched gelatin (DQ™-gelatin, Invitrogen, Carlsbad, CA, USA) was added at a final concentration of 2.5 µg/mL and the increase in fluorescence over time was measured with the CLARIOstar microplate reader (BMG Labtech, Ortenberg, Germany). […] Proteolytic activity was determined by linear regression of the fluorescence curve and the percentage inhibition was calculated through comparison with the positive control (no inhibitors). […]

[1] = molecular target: T3, human neutrophil-derived MMP-9 monomers (Homo sapiens, UniProt P14780); assay: Gelatin degradation assay, neutrophil-derived MMP-9 monomers; settings: MMP-9 isolated from human neutrophils, mono
T3 construct: purchased Sigma-Aldrich 444,231; host or cells: human neutrophils (natural protein)
Procedure: Compounds 5 and 7 were synthesized as previously reported. Full-length human proMMP-9 was produced by recombinant expression in Sf9 insect cells and purified by gelatin-Sepharose chromatography as previously described. Stable full-length proMMP-9 monomers and trimers were separated by glycerol gradient ultracentrifugation as previously described. ProMMP-9 mixture and the separated monomers and trimers were activated by incubation with the catalytic domain of MMP-3 (cat. No. 444217, Merck Millipore, Darmstadt, Germany) as previously described. Activation of proMMP-9 was confirmed by a band shift of ±10 kDa, corresponding to the removal of the auto-inhibitory propeptide domain and by detection of gelatinolytic activity with a previously described gelatin degradation assay. MMP-9 monomers and trimers purified from human neutrophils were purchased (Cat. No. 444,231 and 444232, Sigma-Aldrich, St. Louis, MO, USA). Examples of sample purities and activations can be found in Supplementary Figure S1. Recombinant human proMMP-2 (CHO cell-derived), proMMP-3 (NS0 cell-derived), proMMP-7 (NS0 cell-derived) and proMMP-8 (NS0 cell-derived) were purchased from R & D systems (Minneapolis, MN, USA), dissolved in assay buffer (150 mM NaCl, 5 mM CaCl2, 0.01% Tween-20, 50 mM Tris, pH 7.4) to a concentration of 100 µg/mL and activated by incubation with 1 mM p-aminophenylmercuric acetate for, respectively, 1h, 6h, 2h and 1h. Activation of MMPs was confirmed by a band shift of approximately 10 kDa, corresponding to the removal of the propeptide domain. MMP-14/MT1-MMP (NS0 cell-derived) was also purchased from R & D systems (Minneapolis, MN, USA) and activated by incubation with recombinant human furin (cat. No. 1503-SE-010, R & D systems, Minneapolis, MO, USA) in activation buffer (50 mM Tris, 1 mM CaCl2, 0.5% Brij-35, pH 9) for 1.5 h and activity was tested in assay buffer (50 mM Tris, 3 mM CaCl2, 1 µM ZnCl2, pH 8.5). Active human neutrophil elastase (NE) was purchased from Abcam (Cambridge, UK) and for activity assays of NE the assay buffer was replaced by 200 mM Tris, pH 8.8. ADAM17/TACE (Sf 21 (baculovirus)-derived, R & D systems, Minneapolis, MO, USA) was diluted and evaluated in 25 mM Tris, 2.5 μM ZnCl2, 0.005% Brij-35, pH 9.0. All stocks of the compounds were evaluated for the presence of endotoxin using the EndoZyme II assay (Hyglos bioMérieux, Bernried am Starnberger See, Germany). Endotoxin levels in all concentrated stocks (2.5 mg/mL) were below the accepted limit of 0.5 EU/mL.
To determine the inhibition of gelatinolytic activity, we used a previously optimized gelatin degradation assay. Activated MMP-9, activated MMP-2, neutrophil elastase or supernatants of stimulated neutrophils, were incubated with different concentrations of inhibitors and incubated for 30 min at 37 °C. Next, dye-quenched gelatin (DQ™-gelatin, Invitrogen, Carlsbad, CA, USA) was added at a final concentration of 2.5 µg/mL and the increase in fluorescence over time was measured with the CLARIOstar microplate reader (BMG Labtech, Ortenberg, Germany). For other MMPs, the OmniMMP substrate peptide (Mca-PLGL-Dpa-AR-NH2, cat. no. BML-P126-0001, Enzo Life Sciences, Farmingdale, NY, USA) was used at a final concentration of 2.5 µg/mL. For ADAM17 the fluorogenic peptide Mca-PLAQAV-Dpa-RSSSR-NH2 (ES003, R & D systems, Minneapolis, MO, USA) and for neutrophil elastase the fluorogenic substrate MeOSuc-AAPV-AMC (cat. no. 324740, Merck Millipore, Darmstadt, Germany) were used. Proteolytic activity was determined by linear regression of the fluorescence curve and the percentage inhibition was calculated through comparison with the positive control (no inhibitors). When testing supernatants from human neutrophils, the assay was performed in the presence of 20 µM neutrophil elastase inhibitor (Elastase Inhibitor IV, Calbiochem, Darmstadt, Germany).

T2 sequence (P78536 215-824): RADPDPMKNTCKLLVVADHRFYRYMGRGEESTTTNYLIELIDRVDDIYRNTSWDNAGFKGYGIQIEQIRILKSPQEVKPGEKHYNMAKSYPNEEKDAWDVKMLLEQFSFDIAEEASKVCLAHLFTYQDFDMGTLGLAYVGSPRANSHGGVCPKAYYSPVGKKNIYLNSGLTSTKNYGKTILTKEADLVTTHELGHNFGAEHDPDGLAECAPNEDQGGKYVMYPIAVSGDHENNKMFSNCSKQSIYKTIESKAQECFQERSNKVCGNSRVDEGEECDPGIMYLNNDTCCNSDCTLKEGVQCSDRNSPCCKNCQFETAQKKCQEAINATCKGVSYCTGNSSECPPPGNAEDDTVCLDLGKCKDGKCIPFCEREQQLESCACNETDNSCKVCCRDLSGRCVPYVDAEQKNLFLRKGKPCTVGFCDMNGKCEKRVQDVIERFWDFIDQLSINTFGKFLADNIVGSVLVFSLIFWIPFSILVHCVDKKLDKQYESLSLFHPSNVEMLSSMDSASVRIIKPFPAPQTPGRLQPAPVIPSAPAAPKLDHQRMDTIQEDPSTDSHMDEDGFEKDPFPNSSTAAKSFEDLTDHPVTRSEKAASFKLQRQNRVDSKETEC
T3 sequence (P14780 107-707 limits assumed): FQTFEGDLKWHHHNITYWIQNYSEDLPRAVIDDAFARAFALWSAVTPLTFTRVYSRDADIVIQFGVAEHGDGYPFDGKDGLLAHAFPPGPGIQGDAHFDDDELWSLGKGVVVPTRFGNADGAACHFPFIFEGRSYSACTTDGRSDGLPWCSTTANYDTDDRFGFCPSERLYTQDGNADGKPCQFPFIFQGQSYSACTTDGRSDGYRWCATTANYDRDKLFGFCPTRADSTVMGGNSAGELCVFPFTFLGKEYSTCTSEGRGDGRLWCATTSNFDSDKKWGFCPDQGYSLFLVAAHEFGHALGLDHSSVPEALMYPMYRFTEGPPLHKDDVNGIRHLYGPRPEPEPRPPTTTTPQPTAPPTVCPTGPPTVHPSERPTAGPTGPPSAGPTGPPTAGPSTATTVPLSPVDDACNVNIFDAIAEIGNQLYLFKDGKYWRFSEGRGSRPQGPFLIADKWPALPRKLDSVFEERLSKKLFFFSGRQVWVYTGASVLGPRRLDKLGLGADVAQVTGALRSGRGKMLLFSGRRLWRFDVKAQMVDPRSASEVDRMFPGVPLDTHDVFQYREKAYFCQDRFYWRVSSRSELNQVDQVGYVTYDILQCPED

Row | SMILES | pIC50 (MMP-2) | IC50 (TACE/ADAM17) | IC50 (TACE/ADAM17; listed as compound 5) | IC25 [1] [nM] | pIC50 [1] | IC75 [1] [nM] | IC50 (TACE/ADAM17; listed as compound 7)
1 | CC(C)[C@H](C(=O)O)N(CCNC(=O)c1ccccc1)S(=O)(=O)c1ccc(-c2ccccc2)cc1 [Compound 5] | 5.99 | no inhibition ^† | not inhibited | 300 | 5.94 | 4431 | –
2 | CC(C)[C@H](C(=O)O)N(CCNC(=O)c1cccc(C(=O)NCCN([C@@H](C(=O)O)C(C)C)S(=O)(=O)c2ccc(-c3ccccc3)cc2)c1)S(=O)(=O)c1ccc(-c2ccccc2)cc1 [Compound 7] | ~8.30 and 8.30 | no inhibition ^† | – | 10 | 7.37 | 181 | not inhibited
